Reference: US20140080214A1, “CLEAVABLE CELLULOSIC SPONGE DEVELOPMENT FOR 3 DIMENSIONAL CELL CULTURE AND SPHEROIDS RETRIEVAL” (Agency for Science, Technology and Research, priority 2012, published 2014)
“Also recorded” adds a separate entry of the source.

Tests used:
[1] = Sponge cleavage condition optimization (visual monitoring of sponge incubated with reductant); conditions: 37° C.; for Remarks: sponge cleavage: 1 mM reductant in William's E medium
Experimental: For easy visualization during cleavage, HPCSS Gal sponges were pre-soaked in 0.25 mg/mL propidium iodide overnight (Molecular Probes, USA). The stained sponges were incubated with 3 mL each of TCEP and DTT (as known strong reductant) per sponge at various concentrations (25, 10, 5, 3 and 1 mM) in 37° C., 5% CO2 and 95% incubator. The morphological changes of the sponge were monitored visually every 15 minutes.

[2] = test system: primary rat hepatocyte; experiment: TCEP toxicity study in primary rat hepatocyte (MTT); assay type: cell-based; conditions: for primary rat hepatocyte viability: MTT, ratio to untreated
Experimental: Primary rat hepatocyte was seeded on collagen coated well in 24-well plate format (0.3×10^6 cell per well). The culture was maintained for 3 days and the medium was replenished every day. On the 3rd day, the cells were incubated with TCEP solution in Williams' E medium at pre-determined concentrations and time; 5 mM for 1.5 hour, 10 and 25 mM for 30 minutes each. The duration of the incubation was chosen based on the ability of the associated TCEP concentrations to completely cleave HPCSS Gal sponge. Upon incubation, the morphology of the cells was monitored and followed with further incubation of 1 mg/mL (3-(4,5-dimethylthiazol-2-yl)-2,5-diphenyltetrazolium bromide (MTT) solution for 3 hours. The formed formazan product in each well was dissolved with 300 μL of 0.04 M HCl in isopropanol and its optical density was measured by TECAM Infinite M1000 microplate reader at 570 nm. Cell viability was determined by calculating the ratio of treated sample absorbance against untreated sample absorbance.

[3] = Dynamic of sponge cleavage with time lapse imaging; conditions: 10 mM TCEP, 37° C., confocal time lapse
Experimental: The propidium iodide-prestained HPCSS Gal sponges were incubated with 10 mM TCEP and its macroporosity changes were monitored by Olympus fluoview FV1000 equipped with 37° C. heated chamber with a 60× water lens for 30 minutes with 2 minutes time interval. Images were analysed using IMARIS and images assembled using Adobe illustrator CS3.

[4] = test system: CYP1A2, CYP2B2 and CYP3A2; experiment: RT-PCR gene expression of cytochrome P450 genes in hepatocyte spheroids; assay type: cell-based; conditions: 10 mM TCEP, 30 minutes, rat hepatocyte spheroids
Experimental: Rat hepatocyte, E1 and mESCs spheroids were retrieved from the sponge by incubating cell seeded-cleavable sponge with 3 mL of 10 mM TCEP in respective cell culture mediums in each well of 12-well plate for 30 minutes at 37° C. (incubator set up 5% CO2 and 95% humidity). The cleaved sponge solution from each well was mixed thoroughly by 3 mL plastic dropper and then transferred into 15 mL falcon tube. This solution was further diluted with 3 mL pre-warmed DPBS and centrifuged at 100×g for 10 minutes. This washing step was repeated three times to remove TCEP solution completely. Eventually, the retrieved hepatocyte spheroids were resuspended in fresh mediums and replated on collagen coated dish or poly-L-lysine coated dish for further assays or spheroids manipulation.
RNA was extracted from hepatocytes cultured as 3D spheroids in HPCSS Gal sponges by RLT lysis buffer (Qiagen, Singapore). Total RNA concentration was quantified by a Nanodrop (Thermoscientific) and 1 μg of RNA was converted to cDNA by High Capacity RNA-to-cDNA (Applied Biosystems). Primers were designed using Primer 3 and real-time PCR was performed by using SYBR green fast master mix on a ABI 7500 Fast Real-Time PCR system (Applied Biosystems). Gene expression was calculated using the ΔΔCT method normalized to GAPDH. The primers used in experiment are shown below.

[5] = test system: F-actin, E-cadherin and MRP2; experiment: Immunofluorescence staining of polarity markers and cell-cell junction of retrieved hepatocyte spheroids; assay type: cell-based, rat; conditions: 10 mM TCEP to cleave the sponge
Experimental: To stain F-actin, E-cadherin and MRP2, hepatocytes spheroids cultured for 72 hours post-seeding in the sponges and retrieved from HPCSS Gal sponges were fixed in 3.7% paraformaldehyde for 10 minutes. For staining F-actin, the cells were permeabilized for 5 minutes in 0.1% Triton X-100 and incubated with 1 μg/mL TRITC-phalloidin (Molecular Probes, USA) for 20 minutes. For E-cadherin and MRP2 staining, following washing and blocking with 2% BSA/0.2% Triton-X 100 the spheroids were incubated overnight at 4° C. with primary antibodies: anti-rat E-cadherin (BD, USA) and rabbit anti-rat MRP2 (Sigma Aldrich, Singapore), respectively. Secondary antibodies used were goat anti-mouse and goat anti-rabbit 488 and 555 (Molecular Probes, USA), respectively. Nuclei stain was captured using DAPI stain (Vecta Shield, UK). Images were captured using Olympus fluoview FV1000 with a 60× water lens. Images were analysed using IMARIS and assembled using Adobe illustrator CS3.

[6] = test system: cells; conditions: 10 mg/mL, 24 hours of exposure; cited from earlier work
[7] = reduction of disulfide bonds; cited from earlier work
[8] = 3 mM reductant in William's E medium
[9] = 5 mM reductant in William's E medium
[10] = 25 mM reductant in William's E medium

SMILES: O=C(O)CCP(CCC(=O)O)CCC(=O)O [TCEP, tris(2-carboxyethyl)phosphine]
- Remarks: sponge cleavage [1]: Sponge not
- Remarks: time within which sponge cleaved [1, 8]: within 2 hours
- Remarks: time within which sponge cleaved [1, 9]: within 1.5 hour
- Remarks: time within which sponge cleaved [1, 10]: within 30 minutes
- primary rat hepatocyte viability ([2]; 5 mM, 1.5 hour): 79.75±10.71%
- primary rat hepatocyte viability ([2]; 10 mM, 30 minutes): 87.42±8.03%
- primary rat hepatocyte viability ([2]; 25 mM, 30 minutes): 93.06±6.96%
- cell damage in phase contrast images ([2]; hepatocytes with and without TCEP incubation): No significant cell damage
- maintenance of cell viability (FIG. 10 legend) ([2]; rat hepatocyte, all TCEP configurations tested): > 80%
- time at which sponge macroporous networks had shrunken significantly [3]: 6 min
- effect of TCEP incubation on CYP genes [4]: did not show any significant detrimental effect; also recorded: no significant effect
- effect of TCEP incubation on polarity markers and cell-cell junction [5]: does not show harmful effect
- remaining viable cells [6]: 60%
- pH range at which the reductant is effective [7]: 1.5-8.5

SMILES: O[C@H](CS)[C@H](O)CS (racemic) [DTT, dithiothreitol]
- Remarks: sponge cleavage [1]: Sponge not
- Remarks: time within which sponge cleaved [1, 8]: within 2 hours
- Remarks: time within which sponge cleaved [1, 9]: within 1.5 hour
- Remarks: time within which sponge cleaved ([1]; 10 mM reductant in William's E medium): within 30 minutes
- Remarks: time within which sponge cleaved [1, 10]: within 30 minutes
- pH range at which the reductant is effective [7]: 7-8.1
